Source: PubChem BioAssay AID977605 (Broad Institute, 2014)
Active and inactive are the calls of the source.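 The calls were made as follows: active = fitted curve reaches 40% activation below the top valid tested dose, in every test run; inconclusive = test runs disagree on the call; inactive = the rest, including effects opposite to the expected direction.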

Experiment: E-selectin inducers in HUVECs, dose response, imaging, HUVEC, cherry-picked samples (AID 977605);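 also: signal is the share of imaged cells scored positive for E-selectin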
Conditions: HUVEC E-selectin immunostaining, at 18 µM (top of the series), percent of TNF-alpha response over vehicle

| SMILES | activation |
| --- | --- |
| C[C@@H]1CN([C@H](C)CO)C(=O)c2cccc(NC(=O)CCCCCC(=O)Nc3ccccc3N)c2O[C@H]1CN(C)Cc1ccc2c(c1)OCO2 | 0.253% (inactive) |
| CCC(=O)N1CC[C@@H]2[C@H](CO)Nc3ccc(C#Cc4ccc(F)cc4)cc3[C@@H]21 | 27.2% (inactive) |

Same assay, conditions: HUVEC E-selectin immunostaining, at 19.5 µM (top of the series), percent of TNF-alpha response over vehicle

| SMILES | activation |
| --- | --- |
| Cc1ccc(COc2ccc(/C=N/O)cc2)cc1 | -0.083% (inactive) |
| C[C@@H]1CN([C@H](C)CO)C(=O)c2cc(NS(C)(=O)=O)ccc2O[C@@H]1CN(C)Cc1ccc(C(F)(F)F)cc1 | -0.068% (inactive) |
| Cc1ccc(S(=O)(=O)N2CCN(C(=O)Cc3sc(C)nc3-c3ccc(F)cc3)CC2)c(C)c1 | -0.025% (inactive) |
| C[C@@H]1CN([C@@H](C)CO)C(=O)Cc2cc(NC(=O)Nc3ccc(F)cc3)ccc2O[C@H]1CN(C)Cc1ccc(C(=O)O)cc1 | -0.089% (inactive) |
| CCOC(=O)N1CCN(c2c(N3CCOCC3)c(=O)c2=O)CC1 | 7.45% (inactive) |
| OC(Cc1ccccc1Br)c1ncc(-c2ccc(Cl)cc2)[nH]1 (centres undefined) | 1.34% (inactive) |
| C[C@H]1CN([C@@H](C)CO)C(=O)c2cccc(NC(=O)c3ccncc3)c2O[C@@H]1CN(C)Cc1ccc(C(=O)Nc2ccccc2N)cc1 | 0.014% (inactive) |
| Cc1cccc(NC(=O)CCCN2C(=O)C(c3ccccc3)Oc3cccnc32)c1C (centres undefined) | 0.811% (inactive) |
| Cc1ccc(NCC(=O)N2CCN(S(=O)(=O)c3ccccc3)CC2)cc1F | 0.075% (inactive) |
| C[C@@H]1CN([C@@H](C)CO)C(=O)c2cc(NS(=O)(=O)c3cccs3)ccc2O[C@H]1CN(C)C(=O)Nc1ccc2c(c1)OCO2 | -0.287% (inactive) |
| C[C@@H]1CN([C@@H](C)CO)C(=O)c2cc(C#CC3CC3)cnc2O[C@@H]1CN(C)C(=O)c1ccccc1 | -0.295% (inactive) |
| CN(CC(=O)Nc1ccc(Cl)c(Cl)c1)C1CCCCC1 | -0.064% (inactive) |
| CC(=O)Nc1ccc(CNc2nc(NC(C)C)nc3cc(-c4ccccc4)sc23)cc1 | 1.22% (inactive) |
| COc1ccc(CN(C)C[C@H]2Oc3ccc(NC(=O)Cn4cnnn4)cc3CC(=O)N([C@@H](C)CO)C[C@@H]2C)cc1 | -0.061% (inactive) |
| C[C@H]1CN([C@@H](C)CO)C(=O)c2cccc(NS(C)(=O)=O)c2O[C@H]1CN(C)S(C)(=O)=O | 0.973% (inactive) |
| Cc1noc(C)c1S(=O)(=O)N(C)C[C@@H]1Oc2ccc(NC(=O)Nc3ccc(F)cc3)cc2CC(=O)N([C@@H](C)CO)C[C@@H]1C | -0.013% (inactive) |
| C[C@H]1CN([C@@H](C)CO)C(=O)c2cc(NC(=O)CCN3CCOCC3)ccc2O[C@@H]1CN(C)S(=O)(=O)c1ccc(Cl)cc1 | -0.142% (inactive) |
| C[C@@H]1CN([C@@H](C)CO)C(=O)Cc2cc(NS(C)(=O)=O)ccc2O[C@H]1CN(C)Cc1ccncc1 | -0.007% (inactive) |
| COc1ccc(S(=O)(=O)N(C)C[C@@H]2Oc3ccc(NC(=O)c4ccncc4)cc3C(=O)N([C@H](C)CO)C[C@H]2C)cc1 | -0.082% (inactive) |
| COc1ccc(S(=O)(=O)N(C)C[C@@H]2Oc3ccc(NS(=O)(=O)c4c(C)noc4C)cc3C(=O)N([C@@H](C)CO)C[C@H]2C)cc1 | -0.096% (inactive) |

| SMILES | activation |
| --- | --- |
| CC(=O)NC(Cc1c[nH]c2ccccc12)C(=O)NCCc1ccccn1 (centres undefined) | 0.144% (inactive) |
| C[C@@H]1CN([C@H](C)CO)C(=O)Cc2cc(NC(=O)CCN3CCOCC3)ccc2O[C@H]1CN(C)S(C)(=O)=O | 0.606% (inactive) |
| C[C@H]1CN([C@@H](C)CO)C(=O)c2cc(NS(C)(=O)=O)ccc2O[C@@H]1CN(C)Cc1ccc(Cl)c(Cl)c1 | -0.025% (inactive) |
| O=C(O)CC1C(=O)NCCN1Cc1cccs1 (centres undefined) | -0.112% (inactive) |
| Cc1cccc(CC(=O)c2c[nH]c3ccccc23)c1 | -0.07% (inactive) |
| O=C(NC1CCCC1)c1cc(-c2ccccc2O)on1 | 0.323% (inactive) |
| COc1ccc(C(=O)Nc2ccc3c(c2)OCCO3)cc1[N+](=O)[O-] | 0.055% (inactive) |
| CCCCSCCCNC(=O)C1CCC(CNS(=O)(=O)c2ccc(NC(C)=O)cc2)CC1 (centres undefined) | 0.405% (inactive) |
| CC(C)NC(=O)Nc1cccc2c1O[C@H](CN(C)Cc1ccc(Cl)c(Cl)c1)[C@@H](C)CN([C@@H](C)CO)C2=O | 0.01% (inactive) |
| Cc1cc(NC(=O)c2ccccc2F)n(C(C)(C)C)n1 | 0.21% (inactive) |
| Cc1ccc(S(=O)(=O)N(C)C[C@H]2Oc3ccc(NC(=O)CCCN(C)C)cc3C(=O)N([C@H](C)CO)C[C@H]2C)cc1 | -0.247% (inactive) |
| C[C@H]1CN([C@@H](C)CO)C(=O)c2cccc(NS(=O)(=O)c3ccc(F)cc3)c2O[C@H]1CN(C)S(=O)(=O)c1cccs1 | -0.103% (inactive) |
| CCNC(=O)CC1C(=O)N(c2ccc(OC)cc2)C(=O)N1CCOC (centres undefined) | -0.131% (inactive) |
| Cc1ccc(SCc2cc(=O)n(C)[nH]2)cc1 | 0.221% (inactive) |
| O=C(NCc1ccccc1)C(c1ccc(C(F)(F)F)cc1)N1CCN(CCN2CCOCC2)CC1 (centres undefined) | 6.03% (inactive) |
| C[C@@H]1CN([C@@H](C)CO)C(=O)c2cc(NC(=O)Nc3ccc4c(c3)OCO4)ccc2O[C@H]1CN(C)C | -0.091% (inactive) |
| CNC[C@H]1Oc2ccc(N(C)C)cc2C(=O)N([C@@H](C)CO)C[C@H]1C | 0.27% (inactive) |
| C[C@H](CO)N1C[C@H](C)[C@@H](CN(C)C)Oc2cc(C#Cc3ccccc3F)ccc2S1(=O)=O | 0.115% (inactive) |
| C[C@@H]1CN([C@H](C)CO)C(=O)c2cc(NS(=O)(=O)c3cccs3)ccc2O[C@H]1CN(C)S(C)(=O)=O | -0.143% (inactive) |
| C[C@H](CO)N1C[C@H](C)[C@H](CN(C)Cc2ccncc2)Oc2ccc(NC(=O)CCC(F)(F)F)cc2CC1=O | -0.107% (inactive) |

| SMILES | activation |
| --- | --- |
| Cc1noc(C)c1NC(=O)N(C)C[C@H]1Oc2ccc(NS(=O)(=O)c3cccs3)cc2C(=O)N([C@H](C)CO)C[C@@H]1C | 3.28% (inactive) |
| COc1ccc(S(=O)(=O)N(C)C[C@H]2Oc3ccc(NC(=O)Nc4ccc5c(c4)OCO5)cc3CC(=O)N([C@H](C)CO)C[C@@H]2C)cc1 | 0.086% (inactive) |
| C[C@@H]1CN([C@H](C)CO)C(=O)c2cc(NC(=O)CCC(F)(F)F)ccc2O[C@@H]1CN(C)Cc1ccc(C(F)(F)F)cc1 | 0.048% (inactive) |
| C[C@@H]1CN([C@H](C)CO)C(=O)c2cccc(NS(C)(=O)=O)c2O[C@H]1CN(C)Cc1ccncc1 | 1.77% (inactive) |
| Cc1noc(C)c1NC(=O)Nc1cccc2c1O[C@@H](CN(C)Cc1ccc(C(F)(F)F)cc1)[C@H](C)CN([C@@H](C)CO)C2=O | 0.145% (inactive) |
| C[C@@H]1CN([C@@H](C)CO)C(=O)c2cccc(NC(=O)c3ccc(-c4nccs4)cc3)c2O[C@H]1CN(C)Cc1ccc(Oc2ccccc2)cc1 | 3.4% (inactive) |
| C[C@H](CO)N1C[C@H](C)[C@H](CN(C)CC2CC2)Oc2ccc(NC(=O)Cc3ccccc3)cc2CC1=O | 0.216% (inactive) |
| C[C@@H]1CN([C@H](C)CO)C(=O)c2cccc(NC(=O)C3CCOCC3)c2O[C@@H]1CN(C)Cc1ccc(Oc2ccccc2)cc1 | 0.031% (inactive) |
| C[C@H](CO)N1C[C@H](C)[C@@H](CN(C)C(=O)NC2CCCCC2)Oc2ccc(NS(=O)(=O)c3ccccc3)cc2C1=O | -0.099% (inactive) |
| Nc1nnc(SCc2nnc(-c3ccccc3)o2)s1 | 0.69% (inactive) |
| C[C@H]1CN([C@@H](C)CO)C(=O)Cc2cc(NS(=O)(=O)c3ccccc3)ccc2O[C@H]1CN(C)Cc1ccc(C(F)(F)F)cc1 | 10.6% (inactive) |
| C[C@H](CO)N1C[C@H](C)[C@@H](CN(C)S(=O)(=O)c2ccccc2)Oc2ccc(NC(=O)Nc3ccc(C(F)(F)F)cc3)cc2C1=O | 0.863% (inactive) |
| C[C@H](CO)N1C[C@H](C)[C@H](CN(C)CC2CCCCC2)Oc2ccc(NC(=O)Nc3ccc4c(c3)OCO4)cc2C1=O | -0.185% (inactive) |
| C[C@@H]1CN([C@@H](C)CO)C(=O)c2cc(C3=CCCCC3)cnc2O[C@H]1CN(C)C(=O)NC1CCCC1 | -0.267% (inactive) |
| C[C@H](CO)N1C[C@H](C)[C@H](CN(C)C(=O)c2ccc3c(c2)OCO3)Oc2cc(-c3ccccc3)ccc2S1(=O)=O | -0.242% (inactive) |
| COc1ccc(S(=O)(=O)N(C)C[C@@H]2Oc3c(NS(=O)(=O)c4ccc(F)cc4)cccc3C(=O)N([C@H](C)CO)C[C@@H]2C)cc1 | -0.15% (inactive) |
| Cc1cc(C(=O)Nc2ccc(Cl)cc2)n(-c2ccccc2)n1 | 0.412% (inactive) |
| C[C@H]1CN([C@@H](C)CO)C(=O)Cc2cc(NS(=O)(=O)c3ccc(F)cc3)ccc2O[C@H]1CN(C)S(=O)(=O)c1ccc(Cl)cc1 | -0.018% (inactive) |
| C[C@@H]1CN([C@H](C)CO)C(=O)c2cc(NS(C)(=O)=O)ccc2O[C@@H]1CN(C)C(=O)Nc1ccccc1 | -0.094% (inactive) |

Same assay, conditions: HUVEC E-selectin immunostaining, at 21 µM (top of the series), percent of TNF-alpha response over vehicle

| SMILES | activation |
| --- | --- |
| C[C@@H]1CN([C@H](C)CO)C(=O)Cc2cc(NC(=O)Nc3ccc(F)cc3)ccc2O[C@@H]1CN(C)S(=O)(=O)c1ccc(Cl)cc1 | 0.732% (inactive) |
| C[C@H](CO)N1C[C@H](C)[C@H](CN(C)S(=O)(=O)c2ccc(Cl)cc2)Oc2ccc(NC(=O)Nc3ccc(F)cc3)cc2CC1=O | 0.805% (inactive) |
| C[C@@H]1CN([C@H](C)CO)C(=O)Cc2cc(NC(=O)Nc3ccc(C(F)(F)F)cc3)ccc2O[C@H]1CN(C)Cc1ccc(Oc2ccccc2)cc1 | -0.245% (inactive) |
| C[C@@H]1CN([C@@H](C)CO)C(=O)c2cc(NC(=O)Nc3ccc4c(c3)OCO4)ccc2O[C@H]1CN(C)Cc1ccc(-c2ccccc2)cc1 | 2.77% (inactive) |
| C[C@H]1CN([C@@H](C)CO)C(=O)c2cccc(NC(=O)Nc3ccc(F)cc3)c2O[C@@H]1CN(C)C(=O)NC1CCCCC1 | 0.342% (inactive) |
| CC(C)NC(=O)N(C)C[C@@H]1Oc2c(NC(=O)c3ccc(-c4nccs4)cc3)cccc2C(=O)N([C@@H](C)CO)C[C@@H]1C | -0.199% (inactive) |
| C[C@@H]1CN([C@H](C)CO)C(=O)c2cc(NC(=O)Nc3ccc4c(c3)OCO4)ccc2O[C@H]1CN(C)S(=O)(=O)c1ccccc1 | -0.095% (inactive) |
| COc1ccc(S(=O)(=O)N(C)C[C@H]2Oc3ccc(NC(=O)c4ccncc4)cc3C(=O)N([C@H](C)CO)C[C@H]2C)cc1 | 4.32% (inactive) |
